The record followed here is US8148391B2 (Cephalon, Inc., priority 2006, dated 2012).

A word on the IC50: it is the concentration needed to halve the response being measured.

Experiment [1] has as its target T1, baculovirus-expressed ALK (Homo sapiens, UniProt Q9UM73).
T1 construct: host or cells: baculovirus expression system
Kind of experiment: ALK Kinase Assay (ELISA-type, time-resolved fluorescence). The experiment is classed as biochemical. The following applies: 1 μM ATP (Km level); read-out: ALK Activity (ALK Kinase Inhibition, IC50). The procedure, abridged:
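Plates coated with phospholipase C-γ substrate (10 μg/mL in TBS); reaction started with 30 ng/ml ALK and run 15 min at 37° C. Phosphorylated substrate detected with Eu-N1-labeled PT66 antibody. IC50 from sigmoidal variable-slope fit of percent inhibition vs log concentration.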

Experiment [2] addresses T2, c-Met (cytoplasmic domain) (Homo sapiens, UniProt P08581).
T2 construct: 10 ng/mL c-Met (cytoplasmic domain, Invitrogen Corporation #PV3143); purchased Invitrogen Corporation PV3143
The experiment in a line: c-Met Kinase Assay (same methods as for ALK, with modifications). The experiment is classed as biochemical. The following applies: 1 μM ATP (Km level); read-out: cMet Activity (c-Met Kinase Inhibition, IC50). The essentials:
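Europium-labeled PT66 antibody (Eu-N1) detects substrate phosphorylation on wells coated with phospholipase C-γ at 10 μg/mL. The kinase, the cytoplasmic domain of c-Met at 10 ng/mL, starts the reaction, which proceeds 15 minutes at 37° C.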

The structures appear in SMILES notation. Some results are limits rather than exact numbers.

T1 sequence (Q9UM73 19-1620): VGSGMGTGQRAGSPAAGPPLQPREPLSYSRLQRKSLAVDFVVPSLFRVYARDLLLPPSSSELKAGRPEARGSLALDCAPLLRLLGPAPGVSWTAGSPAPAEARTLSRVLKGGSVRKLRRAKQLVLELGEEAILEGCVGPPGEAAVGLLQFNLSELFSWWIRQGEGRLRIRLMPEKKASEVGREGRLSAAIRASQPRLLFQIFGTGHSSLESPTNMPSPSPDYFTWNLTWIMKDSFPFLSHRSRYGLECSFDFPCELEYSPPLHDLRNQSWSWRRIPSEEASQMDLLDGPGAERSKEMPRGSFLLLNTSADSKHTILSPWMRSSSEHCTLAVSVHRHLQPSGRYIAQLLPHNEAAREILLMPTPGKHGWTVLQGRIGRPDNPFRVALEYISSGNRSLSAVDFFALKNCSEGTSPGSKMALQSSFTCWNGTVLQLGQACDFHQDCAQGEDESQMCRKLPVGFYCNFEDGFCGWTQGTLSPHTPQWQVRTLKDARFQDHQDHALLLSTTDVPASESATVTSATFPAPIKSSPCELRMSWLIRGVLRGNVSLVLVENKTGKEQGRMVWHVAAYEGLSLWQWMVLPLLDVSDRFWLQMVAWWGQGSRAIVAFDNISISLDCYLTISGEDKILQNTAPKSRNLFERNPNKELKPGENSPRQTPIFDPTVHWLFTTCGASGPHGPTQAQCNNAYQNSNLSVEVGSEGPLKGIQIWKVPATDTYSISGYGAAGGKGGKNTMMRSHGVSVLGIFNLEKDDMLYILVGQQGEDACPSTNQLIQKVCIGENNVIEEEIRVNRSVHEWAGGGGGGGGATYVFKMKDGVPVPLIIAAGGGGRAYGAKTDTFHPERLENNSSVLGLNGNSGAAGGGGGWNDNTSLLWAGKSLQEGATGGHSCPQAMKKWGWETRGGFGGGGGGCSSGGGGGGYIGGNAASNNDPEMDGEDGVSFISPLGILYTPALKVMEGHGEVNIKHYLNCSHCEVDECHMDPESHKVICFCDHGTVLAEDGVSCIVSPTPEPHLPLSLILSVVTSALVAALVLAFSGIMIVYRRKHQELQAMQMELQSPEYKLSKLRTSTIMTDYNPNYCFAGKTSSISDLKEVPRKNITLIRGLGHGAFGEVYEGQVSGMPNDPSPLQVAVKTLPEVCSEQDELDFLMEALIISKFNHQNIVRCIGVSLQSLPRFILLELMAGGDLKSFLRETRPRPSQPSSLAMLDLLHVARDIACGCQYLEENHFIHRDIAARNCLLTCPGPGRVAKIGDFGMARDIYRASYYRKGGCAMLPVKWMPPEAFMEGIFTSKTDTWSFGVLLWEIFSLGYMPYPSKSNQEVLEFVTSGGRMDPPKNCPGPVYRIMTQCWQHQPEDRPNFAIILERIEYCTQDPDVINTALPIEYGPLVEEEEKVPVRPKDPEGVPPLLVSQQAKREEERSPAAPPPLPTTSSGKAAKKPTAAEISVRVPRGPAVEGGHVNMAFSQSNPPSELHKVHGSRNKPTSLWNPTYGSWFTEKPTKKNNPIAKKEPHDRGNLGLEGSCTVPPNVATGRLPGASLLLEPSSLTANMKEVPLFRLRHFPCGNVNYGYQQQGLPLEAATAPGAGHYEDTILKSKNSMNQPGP
T2 sequence (P08581 956-1390 limits assumed): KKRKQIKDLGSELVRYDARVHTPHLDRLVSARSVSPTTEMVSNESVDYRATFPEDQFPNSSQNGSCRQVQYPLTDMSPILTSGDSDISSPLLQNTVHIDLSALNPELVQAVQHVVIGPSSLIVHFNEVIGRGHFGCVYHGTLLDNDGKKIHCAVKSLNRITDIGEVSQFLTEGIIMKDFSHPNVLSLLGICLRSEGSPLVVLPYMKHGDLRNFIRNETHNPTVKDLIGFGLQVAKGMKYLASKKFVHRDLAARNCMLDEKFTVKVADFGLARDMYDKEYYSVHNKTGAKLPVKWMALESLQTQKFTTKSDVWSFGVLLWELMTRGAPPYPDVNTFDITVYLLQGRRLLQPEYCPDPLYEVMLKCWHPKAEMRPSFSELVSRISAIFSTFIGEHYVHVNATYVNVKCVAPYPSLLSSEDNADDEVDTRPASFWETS

In the case of `COCC(COC)N1CCc2cc(Nc3ncc(Cl)c(Nc4ccc(N5CCOCC5)cc4OC)n3)c(OC)cc2CC1` [Example 814, 5-Chloro-N*2*-[8-methoxy-3-(2-methoxy-1-methoxymethyl-ethyl)-2,3,4,5-tetrahydro-1H-benzo[d]azepin-7-yl]-N*4*-(2-methoxy-4-morpholin-4-yl-phenyl)-pyrimidine-2,4-diamine], the results for the IC50 in experiment [1] and in experiment [2] were less than 100 nM and more than 10000 nM, respectively.

Turning to `COCC(COC)N1CCc2cc(Nc3ncc(Cl)c(N[C@H]4[C@@H](C(N)=O)[C@@H]5C=C[C@H]4C5)n3)c(OC)cc2CC1` [Example 815, (1S,2S,3R,4R)-3-{5-Chloro-2-[8-methoxy-3-(2-methoxy-1-methoxymethyl-ethyl)-2,3,4,5-tetrahydro-1H-benzo[d]azepin-7-ylamino]-pyrimidin-4-ylamino}-bicyclo[2.2.1]hept-5-ene-2-carboxylic acid amide], the IC50 in experiment [1] was less than 100 nM; in experiment [2], more than 10000 nM.

Turning to `COCC(COC)N1CCc2cc(Nc3ncc(Cl)c(N[C@@H]4CCCC[C@H]4NS(C)(=O)=O)n3)c(OC)cc2CC1` [Example 816, N-((1R,2R)-2-{5-Chloro-2-[8-methoxy-3-(2-methoxy-1-methoxymethyl-ethyl)-2,3,4,5-tetrahydro-1H-benzo[d]azepin-7-ylamino]-pyrimidin-4-ylamino}-cyclohexyl)-methanesulfonamide], the half-maximal inhibitory concentration (IC50) in experiment [1] is less than 100 nM; in experiment [2], more than 10000 nM.

On to `COCC(COC)N1CCc2cc(Nc3ncc(Cl)c(Nc4ccccc4S(=O)(=O)C(C)C)n3)c(OC)cc2CC1` [Example 817, 5-Chloro-N*2*-[8-methoxy-3-(2-methoxy-1-methoxymethyl-ethyl)-2,3,4,5-tetrahydro-1H-benzo[d]azepin-7-yl]-N*4*-[2-(propane-2-sulfonyl)-phenyl]-pyrimidine-2,4-diamine], for which the half-maximal inhibitory concentration (IC50) is less than 100 nM in experiment [1] and more than 10000 nM in experiment [2].

Turning to `COCC(COC)N1CCc2cc(Nc3ncc(Cl)c(Nc4ccccc4S(=O)(=O)N(C)C)n3)c(OC)cc2CC1` [Example 818, 2-{5-Chloro-2-[8-methoxy-3-(2-methoxy-1-methoxymethyl-ethyl)-2,3,4,5-tetrahydro-1H-benzo[d]azepin-7-ylamino]-pyrimidin-4-ylamino}-N,N-dimethyl-benzenesulfonamide], the IC50 in experiment [1] was less than 100 nM; in experiment [2], more than 10000 nM.

With `COc1cc2c(cc1Nc1ncc(Cl)c(Nc3ccc(N4CCC(N5CCN(C)CC5)CC4)cc3OC)n1)CCN(CC(=O)N(C)C)CC2` [Example 819, 2-[7-(5-Chloro-4-{2-methoxy-4-[4-(4-methyl-piperazin-1-yl)-piperidin-1-yl]-phenylamino}-pyrimidin-2-ylamino)-8-methoxy-1,2,4,5-tetrahydro-benzo[d]azepin-3-yl]-N,N-dimethyl-acetamide], the IC50 in experiment [1] was less than 100 nM; in experiment [2], more than 10000 nM.

With `COc1ccc(Nc2nc(Nc3cc4c(cc3OC)CCN(CC(=O)N(C)C)CC4)ncc2Cl)c(S(=O)(=O)N(C)C)c1` [Example 820, 2-{7-[5-Chloro-4-(2-dimethylsulfamoyl-4-methoxy-phenylamino)-pyrimidin-2-ylamino]-8-methoxy-1,2,4,5-tetrahydro-benzo[d]azepin-3-yl}-N,N-dimethyl-acetamide], the IC50 in experiment [1] is less than 100 nM; in experiment [2] it was more than 10000 nM.

Turning to `COc1ccc(Nc2nc(Nc3cc4c(cc3OC)CCN(CC(=O)N(C)C)CC4)ncc2Cl)c(NS(C)(=O)=O)c1` [Example 821, 2-{7-[5-Chloro-4-(2-methanesulfonylamino-4-methoxy-phenylamino)-pyrimidin-2-ylamino]-8-methoxy-1,2,4,5-tetrahydro-benzo[d]azepin-3-yl}-N,N-dimethyl-acetamide], the results for the IC50 in experiment [1] and in experiment [2] were less than 100 nM and more than 10000 nM, respectively.

For `COc1cc2c(cc1Nc1ncc(Cl)c(Nc3ccccc3S(=O)(=O)N(C)C)n1)CCN(CC(F)F)CC2` [Example 822, 2-{5-Chloro-2-[3-(2,2-difluoro-ethyl)-8-methoxy-2,3,4,5-tetrahydro-1H-benzo[d]azepin-7-ylamino]-pyrimidin-4-ylamino}-N,N-dimethyl-benzenesulfonamide], the half-inhibitory concentration (IC50) in experiment [1] is less than 100 nM; in experiment [2], more than 10000 nM.

Regarding `COc1cc2c(cc1Nc1ncc(Cl)c(Nc3ccccc3-n3cccn3)n1)CCN(CC(F)F)CC2` [Example 823, 5-Chloro-N*2*-[3-(2,2-difluoro-ethyl)-8-methoxy-2,3,4,5-tetrahydro-1H-benzo[d]azepin-7-yl]-N*4*-(2-pyrazol-1-yl-phenyl)-pyrimidine-2,4-diamine], the values for the IC50 in experiment [1] and in experiment [2] were less than 100 nM and more than 10000 nM, respectively.

With `COc1cc2c(cc1Nc1ncc(Cl)c(Nc3ccccc3S(=O)(=O)N(C)C)n1)CCN(CC(C)(F)F)CC2` [Example 824, 2-{5-Chloro-2-[3-(2,2-difluoro-propyl)-8-methoxy-2,3,4,5-tetrahydro-1H-benzo[d]azepin-7-ylamino]-pyrimidin-4-ylamino}-N,N-dimethyl-benzenesulfonamide], the IC50 is less than 100 nM in experiment [1] and more than 10000 nM in experiment [2].

With `COc1cc2c(cc1Nc1ncc(Cl)c(Nc3ccccc3-n3cccn3)n1)CCN(CC(C)(F)F)CC2` [Example 825, 5-Chloro-N*2*-[3-(2,2-difluoro-propyl)-8-methoxy-2,3,4,5-tetrahydro-1H-benzo[d]azepin-7-yl]-N*4*-(2-pyrazol-1-yl-phenyl)-pyrimidine-2,4-diamine], the half-inhibitory concentration (IC50) is 100 to 1000 nM in experiment [1] and more than 10000 nM in experiment [2].

Regarding `COc1ccc(Nc2nc(Nc3cc4c(cc3OC)CCN(CC(=O)N(C)C)CC4)ncc2Cl)c(N(C)C)c1` [Example 826, 2-{7-[5-Chloro-4-(2-dimethylamino-4-methoxy-phenylamino)-pyrimidin-2-ylamino]-8-methoxy-1,2,4,5-tetrahydro-benzo[d]azepin-3-yl}-N,N-dimethyl-acetamide], the IC50 was less than 100 nM in experiment [1] and more than 10000 nM in experiment [2].

Consider `COc1cc2c(cc1Nc1ncc(Cl)c(Nc3ccccc3S(=O)(=O)C(C)C)n1)CCN(CC(F)F)CC2` [Example 827, 5-Chloro-N*2*-[3-(2,2-difluoro-ethyl)-8-methoxy-2,3,4,5-tetrahydro-1H-benzo[d]azepin-7-yl]-N*4*-[2-(propane-2-sulfonyl)-phenyl]-pyrimidine-2,4-diamine], for which the half-inhibitory concentration (IC50) in experiment [1] is less than 100 nM; in experiment [2], more than 10000 nM.

For `COc1cc2c(cc1Nc1ncc(Cl)c(Nc3ccccc3S(=O)(=O)C(C)C)n1)CCN(CC(C)(F)F)CC2` [Example 828, 5-Chloro-N*2*-[3-(2,2-difluoro-propyl)-8-methoxy-2,3,4,5-tetrahydro-1H-benzo[d]azepin-7-yl]-N*4*-[2-(propane-2-sulfonyl)-phenyl]-pyrimidine-2,4-diamine], the values for the half-maximal inhibitory concentration (IC50) in experiment [1] and in experiment [2] were less than 100 nM and more than 10000 nM, respectively.

On to `COc1ccc(Nc2nc(Nc3cc4c(cc3OC)CCN(CC(=O)N(C)C)CC4)ncc2Cl)c(N2CCOCC2)c1` [Example 829, 2-{7-[5-Chloro-4-(4-methoxy-2-morpholin-4-yl-phenylamino)-pyrimidin-2-ylamino]-8-methoxy-1,2,4,5-tetrahydro-benzo[d]azepin-3-yl}-N,N-dimethyl-acetamide], for which the IC50 in experiment [1] was less than 100 nM; in experiment [2], more than 10000 nM.
